Data reported in ChEMBL document CHEMBL1133950, “Synthesis and biological evaluation of clitocine analogues as adenosine kinase inhibitors” (Bioorg Med Chem Lett, 2001).

What follows are molecules tested against Adenosine kinase (Rattus norvegicus, UniProt Q64640) (assay: In vitro inhibition of Adenosine kinase of rat brain cytosol.).
Chain of Adenosine kinase (Q64640 whole entry): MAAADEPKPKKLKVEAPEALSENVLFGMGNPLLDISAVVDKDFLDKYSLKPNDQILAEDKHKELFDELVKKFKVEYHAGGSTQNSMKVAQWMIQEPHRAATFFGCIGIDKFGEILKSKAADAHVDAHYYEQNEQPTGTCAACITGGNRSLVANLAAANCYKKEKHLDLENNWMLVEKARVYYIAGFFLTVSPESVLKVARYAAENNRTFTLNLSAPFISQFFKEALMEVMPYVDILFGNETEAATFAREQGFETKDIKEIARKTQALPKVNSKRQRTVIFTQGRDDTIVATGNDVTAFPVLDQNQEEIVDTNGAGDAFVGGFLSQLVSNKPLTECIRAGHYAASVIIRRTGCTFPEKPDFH

Compound	IC50
Nc1ncnc(N[C@@H]2O[C@H](CBr)[C@@H](O)[C@H]2O)c1[N+](=O)[O-]	> 10 µM
Nc1ncnc(N[C@@H]2O[C@H](CO)[C@@H](O)[C@H]2O)c1C1=NCCO1	4 µM
COC(=O)c1c(N)ncnc1N[C@@H]1O[C@H](C)[C@@H](O)[C@H]1O	6.1 µM
O=[N+]([O-])c1c(Nc2ccccc2)ncnc1N[C@@H]1O[C@H](CO)[C@@H](O)[C@H]1O	> 10 µM
COC(=O)c1cncnc1N[C@@H]1O[C@H](CO)[C@@H](O)[C@H]1O	0.6 µM
COC(=O)c1c(N)ncnc1N[C@@H]1O[C@H](CN)[C@@H](O)[C@H]1O	0.002 µM
Nc1ncnc(N[C@@H]2O[C@H](CO)[C@@H](O)[C@H]2O)c1S(=O)(=O)c1ccccc1	> 10 µM
NC[C@H]1O[C@@H](Nc2ncnc(N)c2[N+](=O)[O-])[C@H](O)[C@@H]1O	0.035 µM
Nc1ncnc(N[C@@H]2O[C@H](CO)[C@@H](O)[C@H]2O)c1[S+]([O-])c1ccccc1 (some centres undefined)	> 10 µM
C[C@H]1O[C@@H](Nc2ncnc(N)c2[N+](=O)[O-])[C@H](O)[C@@H]1O	4 µM
Nc1ncnc(N[C@@H]2O[C@H](CO)[C@@H](O)[C@H]2O)c1C(=O)NCCO	> 10 µM
COC(=O)c1c(N)ncnc1N[C@@H]1O[C@H](CO)[C@@H](O)[C@H]1O	10 µM
COC(=O)c1c(Cl)ncnc1N[C@@H]1O[C@H](CO)[C@@H](O)[C@H]1O	> 10 µM
COC(=O)c1cncnc1N[C@@H]1O[C@H](CN)[C@@H](O)[C@H]1O	0.004 µM
